Experimental data taken from PubChem BioAssay AID1626 (SRMLSC, 2009).

System: M. tuberculosis H37Rv growth inhibition
Test: M. tuberculosis H37Rv growth inhibitors, H37Rv strain (AID 1626)
Details: for IC90: measured here: IC90 against H37Rv; for CC50: measured here: Vero cell cytotoxicity

SMILES	IC50	IC90	CC50
COC(=O)CCn1c(C)cc(C(=O)COc2ccccc2C(N)=O)c1C	1.57 µM	31.1 µM	> 40 µM
COc1cccc2c1C(=O)c1c(O)c3c(c(O)c1C2=O)C[C@@](O)(C(=O)CO)C[C@@H]3O[C@H]1C[C@H](N)[C@H](O)[C@H](C)O1	13 µM	> 100 µM	7.25 µM
CCOC(=O)c1ccc(NC(=O)/C=C/c2cccs2)cc1	71.3 µM	> 100 µM	
COc1ccc(N2CSC3=C(C#N)C(c4cccc(OC)c4OC)CC(=O)N3C2)cc1 (stereo not drawn)	54.7 µM	> 100 µM	
c1ccc(-c2nc(NCC3CCCO3)c3ccccc3n2)nc1 (stereo not drawn)	3.11 µM	3.21 µM	> 40 µM
CCOC(=O)c1ccc(N=C(C)c2c(O)[nH]c(=O)[nH]c2=O)cc1		> 100 µM	
Cc1ccc(C(=O)Oc2oc(-c3ccccc3)nc2C=Nc2ccc(N(C)C)cc2)cc1			> 40 µM
CCOc1ccc2nc(/N=C/c3c(C)[nH]n(-c4ccc(C)cc4)c3=O)sc2c1	9.04 µM	> 100 µM	> 40 µM
O=C(/C=C/c1ccc(Br)cc1)c1ccco1	14.5 µM	21.3 µM	> 40 µM
Cc1ccc(NC(=O)c2sc3nc(C)nc(N4CCN(c5ccccn5)CC4)c3c2C)c(C)c1	10.7 µM	> 100 µM	
CC(=O)CC(=O)Nc1ccc2ccccc2c1	13.6 µM	> 100 µM	
O=C(Nc1ccc(C2=NCCN2)cc1)c1ccc(Cl)c(C(=O)Nc2ccc(C3=NCCN3)cc2)c1	7.69 µM	16.9 µM	
c1ccc(OCCOCCN2CCN(C(c3ccccc3)c3ccccc3)CC2)cc1	11.7 µM	13.5 µM	> 40 µM
O=C(CSc1ncn[nH]1)Nc1ccc(Br)cc1F	29.5 µM	> 100 µM	> 40 µM
Cn1c(C(C#N)C(=O)c2sc3ccccc3c2Cl)nc2ccccc21 (stereo not drawn)			> 40 µM
O=c1[nH]c(-c2ccccn2)nc2sc(-c3ccccc3)cc12	< 0.391 µM	0.553 µM	2.2 µM
CCC(=O)c1ccc(OCC(=O)Nc2ccc3nc(C)sc3c2)cc1	6.26 µM	> 100 µM	
CCOC(=O)CNC(=O)CSc1ncnc2c1nnn2-c1ccc(F)cc1		> 100 µM	
CN(C)c1ccc(N=Nc2nc3ccccc3n2C)cc1	0.939 µM	2.73 µM	> 40 µM
Cc1ccc(C(=O)Nc2nc(-c3ccccn3)cs2)o1	2.56 µM	6.19 µM	> 40 µM
COc1ccc(-c2nc(NC(=O)c3cc(C(C)(C)C)nn3C)sc2C)cc1	4.42 µM	8.83 µM	> 40 µM

SMILES	IC50	IC90	CC50
Cc1ccc(S(=O)(=O)NCCC(=O)Nc2ccc(C)c(Cl)c2)cc1C	19.8 µM	> 100 µM	> 40 µM
COc1cccc(N2CCN(c3cnc4ccccc4n3)CC2)c1	25.3 µM	> 100 µM	
COc1ccc(C[C@H]2CN3C(=NC[C@@H]3Cc3ccc(O)cc3)N2C[C@H](C)NC(=O)c2ccc(C)c(Br)c2)cc1	6.33 µM	9.21 µM	
O=C(O)c1ccc(N2C(=O)/C(=C/c3ccc(-c4ccc([N+](=O)[O-])cc4)o3)C=C2c2ccccc2)cc1	19 µM	26.5 µM	20.1 µM
Oc1c(CN2CCc3ccccc3C2)cc(Cl)c2cccnc12	7.65 µM	9.8 µM	4.88 µM
CCOc1ccc(N2C(=O)/C(=C\c3ccc(OC)c(O)c3)S(=O)(=O)C2c2cccc([N+](=O)[O-])c2)cc1 (stereo not drawn)		> 100 µM	
COc1ccc2c(c1)CCc1c-2nc2ccccc2c1N1CCOCC1	11.5 µM	18.6 µM	> 40 µM
CSc1nsc(SCC(=O)Nc2ccc(OC(C)=O)cc2)n1	2.56 µM	3.79 µM	
CSc1ccc(/C=C/C(=O)c2ccc(NC(=O)Cc3ccccc3)cc2)cc1	4.66 µM	> 100 µM	> 40 µM
CC(C)c1ccc(-n2cccc2/C=C2/C(=N)N3C=CSC3=NC2=O)cc1	11.9 µM	> 100 µM	> 40 µM
CCCCNC(=O)Nc1nnc(-c2ccc(Cl)cc2)o1	1.33 µM	3.59 µM	
CCOC(=O)C(C)Sc1ncnc2c1nnn2-c1ccc(F)cc1 (stereo not drawn)	2.47 µM	21.6 µM	
OC(c1cc(-c2ccc(Cl)cc2)nc2ccccc12)C1CCCCN1 (stereo not drawn)	4.52 µM	13.5 µM	7.35 µM
Cn1cnnc1SCc1ccc(-c2ccc(Br)cc2)o1		> 100 µM	> 40 µM
O=C(NCc1ccco1)c1cc2n(n1)C(C(F)(F)F)CC(c1ccc(Cl)c(Cl)c1)N2 (stereo not drawn)		> 100 µM	> 40 µM
O=C(OCC#CCSc1nc2ccccc2o1)c1cc2ccccc2o1	5.72 µM	12.7 µM	> 40 µM
O=C(Nc1cccnc1)c1cc2cc(Br)ccc2oc1=O		> 100 µM	
Cc1coc2c1C(=O)C(=O)c1c-2ccc2c1CCCC2(C)C	3.23 µM	4.85 µM	
COC(=O)c1c(NC(=O)c2ccccc2)sc(C(=O)c2ccccc2)c1C	9.53 µM	25.6 µM	25.3 µM
Cc1nn2c(NCc3ccccn3)cc(C(C)C)nc2c1-c1ccccc1			> 40 µM
Cc1cc2ncn(/N=C/c3ccc([N+](=O)[O-])s3)c2cc1C	< 0.195 µM	0.282 µM	8.74 µM

SMILES	IC50	IC90	CC50
Cc1ccccc1-n1c(O)c(C=Nc2ccc3c(c2)OCO3)c(=O)[nH]c1=O		> 100 µM	
C/C(=N\N=C(/N)SC1CC(=O)N(c2ccc(Br)cc2)C1=O)c1cccs1 (stereo not drawn)	9.24 µM	16.8 µM	> 40 µM
COc1cc(C)c(/C=C/C(C)=C/C=C/C(C)=C/C(=O)O)c(C)c1C	0.488 µM	> 100 µM	> 40 µM
CCCCCOC(=O)c1ccc(OC(=O)c2cncc(Br)c2)cc1	11.6 µM	> 100 µM	
CCCCc1nc2sc3c(SCCN(C)C)ncnc3c2c2c1CCC2	12.8 µM	25.4 µM	> 40 µM
CCOC(=O)CNC(=O)CSc1nc(-c2cccc(C)c2)ns1	1.5 µM	8.29 µM	
Cc1ccc2c(c1)c1c(n2CC(O)CNC2CCCCC2)CCCC1 (stereo not drawn)	6.83 µM	10.2 µM	15.1 µM
COc1ccc(C(CCN2CCCC(C)C2)c2c(OC)cc(OC)c3c(-c4ccccc4)cc(=O)oc23)cc1 (stereo not drawn)	7.53 µM	10.2 µM	14.1 µM
Cc1cccc(OCc2nnc(SCC(=O)OC3CCCCC3)o2)c1	1.25 µM	5.46 µM	
Oc1ccccc1N=Cc1ccc[nH]1	3.04 µM	6.39 µM	> 40 µM
C=CCOC(=O)C(C#N)c1nc2ccccc2nc1N1CCN(Cc2ccc3c(c2)OCO3)CC1 (stereo not drawn)	5.44 µM	6.17 µM	> 40 µM
Cc1c2c(nc3ccccc13)CCC(C)C2 (stereo not drawn)	16.6 µM	40.6 µM	
O=C(Nc1nnc(-c2ccncc2)o1)c1ccc(Br)s1	15 µM	29.7 µM	20.6 µM
S=c1[nH]cnc2scc(-c3ccc(Br)cc3)c12		> 100 µM	34.8 µM
CCOC(=O)c1ccc(NC(=O)CCC2COc3ccccc3O2)cc1 (stereo not drawn)	3.3 µM	> 100 µM	
N#CC(C#N)=c1ccc2c(c1)N1C(c3ccccc3)=CC(c3ccccc3)C3CCCCC31N=2 (stereo not drawn)	28.3 µM	> 100 µM	
N#Cc1c(SCC(N)=O)nsc1SCc1ccccc1Cl	12.1 µM	14.5 µM	
CCCOc1cccc(-c2nn(-c3ccccc3)cc2/C=C(\C#N)C(=O)NCCCn2ccnc2)c1	10.9 µM	11.9 µM	> 40 µM
COc1cc(CC(=O)Nc2ccc3nc(SC)sc3c2)cc(OC)c1OC	11.3 µM	16.1 µM	
COc1ccc(NCC(=O)Nc2ccc(Cl)cc2C)c(OC)c1	27.4 µM	> 100 µM	
O=C(CN1CCC(C(=O)c2ccc3c(c2)OCCO3)CC1)NC1CCCC1			> 40 µM

SMILES	IC50	IC90	CC50
C1=C(CCNc2ncnc3c2[nH]c2ccccc23)CCCC1	1.52 µM	1.72 µM	5.24 µM
CC(C)c1nnc(NC(=O)c2c(O)c3cccc4c3n(c2=O)CCC4)s1	0.604 µM	0.731 µM	6.5 µM
C/C=C/C(=O)OCC(=O)Nc1ccc(OC)c(Cl)c1	20 µM	> 100 µM	
COc1ccc(NC(=O)CN(C)CC(=O)Nc2cccc(F)c2)cc1Cl	32 µM	> 100 µM	
COc1cnc(-c2ccccn2)nc1Oc1ccc(F)cc1F	19.1 µM	> 100 µM	> 40 µM
O=C(Nc1ccc(N2CCCCC2)c(Cl)c1)c1ccc(N2CCOCC2)c([N+](=O)[O-])c1	40.2 µM	> 100 µM	30 µM
O=C(Nc1nc(NC(=O)c2ccco2)n(-c2ccccc2)n1)c1ccccc1	2.65 µM	6.79 µM	8.86 µM
COc1ccc(/C=C2\COc3ccccc3C2=O)cc1OC	9.44 µM	14.6 µM	29.2 µM
CCCCCn1c(=O)c(C(=O)Nc2nc3ccccc3[nH]2)c(O)c2ccccc21	0.706 µM	0.757 µM	6.6 µM
CN(CCCC[C@H](CNCc1ccc(-c2ccccc2)cc1)N1C[C@H](c2ccccc2)N(CCc2ccc(Cl)c(Cl)c2)C(=O)C1=O)Cc1ccc(-c2ccccc2)cc1	5.07 µM	5.61 µM	6.12 µM
CCOC(=O)C1CCN(c2nc3cc(OC)ccc3cc2C#N)CC1	8.91 µM	14.2 µM	
Cc1ccc(OCCC(=O)Nc2ccc(C)c(F)c2)cc1		> 100 µM	
Cc1cc(C)c(N=Cc2c(O)n(-c3nccs3)c(=O)c3ccccc23)c(C)c1	13.1 µM	71.4 µM	
COc1cccc(CNc2cnc3ccccc3c2)c1O	28.6 µM	> 100 µM	
CCc1c(C#N)c(N)nc(SCC(=O)OCc2ccccc2)c1C#N		> 100 µM	
COc1ccccc1N1CCN(Cc2nc(N)nc(Nc3ccc(C)c(Cl)c3)n2)CC1	8.35 µM	18.7 µM	> 40 µM
O/C(=C\c1nc2ccccc2nc1/C=C(\O)c1ccccc1)c1ccccc1		> 100 µM	> 40 µM
CSc1ccc(N=Nc2c(C)[nH]n(C)c2=O)cc1	7.43 µM	> 100 µM	> 40 µM
CCCc1cc(=O)[nH]c(SCC(=O)Nc2nc3ccc(OCC)cc3s2)n1			> 40 µM
COc1ccc(NC2(C#N)CCCCC2)cc1		> 100 µM	
